According to patent US12459930B2, “Compounds for the inhibition of unregulated cell growth” (GODAVARI BIOREFINERIES LIMITED, priority 2018, dated 2025):
Read-outs that look alike come from different tables or passages of the source.

Key:
[1] = test system: DU145 prostate cancer cell line; assay: In vitro antiproliferative assay (MTT assay), DU145; format: cell-based; details: 48 hrs drug incubation, read-out: IC50 in micromolar, DU145 (MTT assay)
Experimental: (§1) MTT assay is a simple and sensitive assay where, metabolic reducing activity of the cells is measured. The increase of this activity in time is taken as a parameter of cell growth. If treatment with a drug impairs this increase, the action is a consequence of growth inhibition, cell killing or both. […] All cell lines were cultured in a 37° C. incubator with a 5% CO2 environment. Compounds were dissolved in DMSO with a concentration of 0.1M (stock solution). Cells were seeded into 96-well plates at suitable plating efficiency.
(§2) Following plating efficiencies were standardized for MTT assay:
(§3) In the MTT procedure, the cells were plated in 96 well plates as per predetermined plating efficiency (Table1). The plates were then incubated for 24 hrs in 5% CO2 atmosphere at 37° C. Appropriate concentrations of the drugs were then added to the plate and further incubation was carried out for 48 hrs (in 5% CO2 atmosphere at 37° C.). The assay plate was then centrifuged twice at 3000 rpm for 3 mins and supernatant was then discarded. 100 ul of MTT solution (0.5 mg/ml) was then added to each well of the plate and it was further incubated for 4 hrs (in 5% CO2 atmosphere at 37° C.) Following 4 hr incubation, the plate was then centrifuged twice, and supernatant was aspirated off very carefully. 200 ul of DMSO was then added to each well to solubilize. MTT crystals and mixed well by shaking the plate. XY graph of log percent viability was then plotted against log drug concentration.

[2] = test system: PC3 prostate cancer cell line; assay: In vitro antiproliferative assay (MTT assay), PC3; format: cell-based; details: 48 h, 48 hrs drug incubation, read-out: IC50 in micromolar, PC3 (MTT assay)
Experimental: as §1, §2, §3

[3] = test system: PC3 spheres (cancer stem cells); assay: In vitro sphere-forming assay (cancer stem cells), PC3 in Prostosphere media; details: for 3D sphere count of PC3 in Prostosphere media: 2000 cells/well, n = 6 ± S.D; for viability at 0.025 µM: read-out: % Viability of spheres (PC3), 0.025 uM; for viability at 0.025 µM / viability at 0.25 µM / viability at 2.5 µM / viability at 25 µM / viability at 250 µM / viability at 0.0025 µM: GCD = 100% viability; for viability at 0.25 µM: read-out: % Viability of spheres (PC3), 0.25 uM; for viability at 2.5 µM: read-out: % Viability of spheres (PC3), 2.5 uM; for viability at 25 µM: read-out: % Viability of spheres (PC3), 25 uM; for viability at 250 µM: read-out: % Viability of spheres (PC3), 250 uM; for viability at 0.0025 µM: read-out: % Viability of spheres (PC3), 0.0025 uM
Source text: (§7) In Vitro Sphere-forming Assay: Sphere assay measures the ability of cancer stem cells (CSCs) to form spheres in specially designed serum-free medium.
Materials and Reagents:50×B27 Supplement (Life Technologies, Invitrogen, Catlog No.: 17502-044), Fibroblast Growth Factor (FGF) (Sigma-Aldrich, Catlog No.: F029125), Epidermal Growth Factor (EGF) (Sigma-Aldrich, Catlog No.: E9644), Insulin (Sigma, Catlog No.: 19278), Dulbecco's Modified Eagle Medium/F12 (HiMedia Catlog No.: AL139-6), Dulbecco's Phosphate Buffered Saline (HiMedia Catlog No.: TL1006), Trypan Blue (TC193), Prostate Epithelial Media (LONZA, Catlog No.: CC-3166) MEGM (LONZA, Catlog No.: CC-3051), Heparin (Sigma, Catlog No.: H3393), Penstrep (HiMedia, Catlog No.: A002)
Prostosphere Media Preparation (For 100 mL): 1 g methyl cellulose autoclaved with magnetic stirrer, 100 mL plain media (Prostate Epithelial Basal Medium) was added and dissolved, under magnetic stirring. After complete dissolution, Insulin—40 μL, B27—2 mL, EGF—80 μL, Penstrep—1 ml was added.
(§8) Procedure—The cells were trypsinised and made into single-cell suspension by passing through cell strainers (100 μl and 40 μl, respectively), The cells were diluted at a concentration of 2000 cells/100 μL and suspended in either Mammosphere (for breast cell lines) or Prostosphere (for prostate cell lines). 100 μL of this suspension was added into each well of 96-well suspension plates and incubated at 37 C, 50 CO2 for 24 hrs. Appropriate concentrations of the drugs (2 L) were added into respective wells with 100 μL of stem cell culture medium. Plates were incubated at 37° C., 50% CO2 for 72 hrs. After incubation, 2.5 μL of the respective drug concentration and 50 μL of stem cell culture medium were added into each well and the plates were further incubated at 37° C., 500 CO2 for 72 hrs. 3 μL of the respective drug concentration was added with 50 μL of stem cell culture medium again after incubation and plates were reincubated for 72 hrs at 37° C., 500 CO2. Number of primary spheres formed for each concentration were counted. The spheres were converted to 0 viability of spheres compared to untreated (Growth Control with DMSO, GCD).

[4] = test system: MDAMB231 spheres (cancer stem cells); assay: In vitro sphere-forming assay (cancer stem cells), MDAMB231 in Mammosphere media; details: for 3D sphere count of MDAMB231 in Mammosphere media: 2000 cells/well, n = 6 ± S.D; for viability at 0.025 µM / viability at 0.25 µM / viability at 2.5 µM / viability at 25 µM / viability at 250 µM / viability at 0.0025 µM: Homo sapiens, MDA-MB-231, read-out: % Viability of spheres (MDAMB231)
Experimental: as §7
Mammosphere Media Preparation (For 100 mL): 1 g methyl cellulose autoclaved with magnetic stirrer, 100 ml plain media (MEBM) was added and dissolved under magnetic stirring. After complete dissolution FGF—80 μL, EGF—40 μL, Penstrep—1 mL, Heparin—400 μL was added.
as §8

[5] = test system: MDAMB231 breast cancer cell line; assay: In vitro antiproliferative assay (MTT assay), MDAMB231; format: cell-based; details: 48 hrs drug incubation, read-out: IC50 in micromolar, MDAMB231 (MTT assay)
Experimental: as §1, §2, §3

[6] = test system: MDAMB231 breast cancer cell line; assay: Soft agar colony-formation assay, MDAMB231; format: cell-based; details: 1 week, Alamar Blue, read-out: IC50 in micromolar, MDAMB231 (Soft Agar Assay)
Experimental: (§4) The Soft Agar Colony-formation Assay is an anchorage-independent growth assay in soft agar, which is one of the most stringent assays for detecting malignant transformation of cells. For this assay, malignant cells are cultured with appropriate controls in soft agar medium for 1-2 weeks. Following this incubation period, formed colonies can either be analyzed morphologically using cell stain and quantifying the number of colonies formed.
(§5) Briefly, for Soft Agar Assay a mixture of 50 ul of 2× medium (taken appropriately as per cell line) and 50 ul of 1.2% Bacto Agar were plated on to each well of 96 well micro titer assay plate. 10 ul of cells (of specific plating efficiency pre standardized for respective cell line) were mixed with 20 ul of 2× medium and 30 ul of 0.8% of Bacto Agar and 1.6 ul of drug (of appropriate concentration) in a vial and transferred to the solidified pre layers of the assay plates. The cells were then allowed to grow and form colonies at 37° C. and 5% C02 for 1 week. An intermittent feeding with 50 ul of appropriate 2× medium was performed after 3 days of experimental set up. 16 ul of Alamar Blue (1.5 mg/ml) was then added to all the wells to quantify the developed colonies. The plates were incubated for 24 hrs at 37° C. Absorbance was then measured at 630 nm. XY graph of log Percent viability was then plotted against log drug concentration.
(§6) Following plating efficiencies were standardized for Soft Agar Assay: […]

[7] = test system: PC3 prostate cancer cell line; assay: Soft agar colony-formation assay, PC3; format: cell-based; details: 1 week, Alamar Blue, read-out: IC50 in micromolar, PC3 (Soft Agar Assay)
Experimental: as §4, §5, §6

[8] = Homo sapiens, MDA-MB-231, 168 h

Row | Compound | IC50 [2] | IC50 [6, 8] | IC50 ([7]; 168 h) | IC50 ([1]; Homo sapiens, DU-145, 48 h) | 3D sphere count of PC3 in Prostosphere media ([3]; 0.025 uM) | 3D sphere count of PC3 in Prostosphere media ([3]; 0.25 uM) | 3D sphere count of PC3 in Prostosphere media ([3]; 2.5 uM) | 3D sphere count of PC3 in Prostosphere media ([3]; 25 uM) | viability at 0.025 µM [3] | viability at 0.25 µM [3] | viability at 2.5 µM [3] | viability at 25 µM [3] | 3D sphere count of MDAMB231 in Mammosphere media ([4]; 0.025 uM) | 3D sphere count of MDAMB231 in Mammosphere media ([4]; 0.25 uM) | 3D sphere count of MDAMB231 in Mammosphere media ([4]; 2.5 uM) | 3D sphere count of MDAMB231 in Mammosphere media ([4]; 25 uM) | viability at 0.025 µM [4] | viability at 0.25 µM [4] | viability at 2.5 µM [4] | viability at 25 µM [4] | further results
1 | c1ccc2c(-c3ccc4c(c3)OCO4)ccc(OCCCCCCN3CCOCC3)c2c1 [Formula IV, 4-(6-(1-(benzo[d][1,3]dioxol-5-yl)naphthalen-4-yloxy)hexyl)morpholine] | 3.79 µM | 2.59 µM | 7.5 µM |  | 44(±3) | 35(±3) | 32(±3) | 22(±3) | 59% | 47% | 43% | 29% | 40(±2) | 35(±2) | 25(±2) | 11(±2) | 50% | 44% | 31% | 13% | IC50 [1]: 3.16 µM; 3D sphere count of PC3 in Prostosphere media ([3]; 250 uM): 0(±0); viability at 250 µM [3]: 0%; 3D sphere count of MDAMB231 in Mammosphere media ([4]; 250 uM): 0(±0); viability at 250 µM [4]: 0%; IC50 [5]: 3.86 µM
2 | CCOC(=O)N1CCN(CCCCCCOc2c3c(c(-c4ccc5c(c4)OCO5)c4cc(OC)c(OC)cc24)C(=O)OC3)CC1 [Formula III, ethyl 4-(6-(9-(benzo[d][1,3]dioxol-5-yl)-1,3-dihydro-6,7-dimethoxy-1-oxonaphtho[2,3-c]furan-4-yloxy)hexyl)piperazine-1-carboxylate] | 2.36 µM |  |  |  | 49(±3) | 38(±4) | 29(±4) | 23(±3) | 63% | 49% | 37% | 29% | 41(±2) | 35(±3) | 30(±4) | 17(±4) | 53% | 45% | 39% | 22% | IC50 [1]: 5.41 µM; 3D sphere count of PC3 in Prostosphere media ([3]; 250 uM): 0(±0); viability at 250 µM [3]: 0%; 3D sphere count of MDAMB231 in Mammosphere media ([4]; 250 uM): 0(±0); viability at 250 µM [4]: 0%; IC50 [5]: 6.68 µM; IC50 [6]: 2.53 µM; IC50 [7]: 4.84 µM
3 | CN1CCN(CCCCOc2ccc(-c3ccc4c(c3)OCO4)c3c2CCCC3)CC1 [Formula XIX, 1-(4-(5-(benzo[d][1,3]dioxol-5-yl)-1,2,3,4-tetrahydronaphthalen-8-yloxy)butyl)-4-methylpiperazine] | 3.71 µM | 3.41 µM | 5.12 µM | 2.04 µM | 40(±3) | 35(±3) | 25(±3) | 13(±2) | 48% | 42% | 30% | 15% | 40(±4) | 34(±3) | 23(±5) | 13(±2) | 50% | 43% | 29% | 16% | 3D sphere count of PC3 in Prostosphere media ([3]; 0.0025 uM): 51(±3); viability at 0.0025 µM [3]: 62%; 3D sphere count of MDAMB231 in Mammosphere media ([4]; 0.0025 uM): 48(±4); viability at 0.0025 µM [4]: 61%; IC50 ([5]; Homo sapiens, MDA-MB-231, 48 h): 2.14 µM

More lines, main results first:

Row | IC50 [2] | IC50 [6, 8] | IC50 ([7]; 168 h) | IC50 ([1]; Homo sapiens, DU-145, 48 h) | Compound | 3D sphere count of PC3 in Prostosphere media ([3]; 0.025 uM) | 3D sphere count of PC3 in Prostosphere media ([3]; 0.25 uM) | 3D sphere count of PC3 in Prostosphere media ([3]; 2.5 uM) | 3D sphere count of PC3 in Prostosphere media ([3]; 25 uM) | viability at 0.025 µM [3] | viability at 0.25 µM [3] | viability at 2.5 µM [3] | viability at 25 µM [3] | 3D sphere count of MDAMB231 in Mammosphere media ([4]; 0.025 uM) | 3D sphere count of MDAMB231 in Mammosphere media ([4]; 0.25 uM) | 3D sphere count of MDAMB231 in Mammosphere media ([4]; 2.5 uM) | 3D sphere count of MDAMB231 in Mammosphere media ([4]; 25 uM) | viability at 0.025 µM [4] | viability at 0.25 µM [4] | viability at 2.5 µM [4] | viability at 25 µM [4] | further results
4 | 3.98 µM | 3.33 µM | 4.07 µM | 2.59 µM | COc1cccc(-c2ccc(OCCN3CCOCC3)c3ccccc23)c1 [Formula XII, 4-(2-(1-(3-methoxyphenyl)naphthalen-4-yloxy)ethyl)morpholine] | 42(±3) | 36(±3) | 28(±3) | 9(±3) | 51% | 44% | 34% | 11% | 41(±3) | 34(±3) | 30(±3) | 9(±3) | 52% | 43% | 38% | 11% | 3D sphere count of PC3 in Prostosphere media ([3]; 0.0025 uM): 50(±3); viability at 0.0025 µM [3]: 61%; 3D sphere count of MDAMB231 in Mammosphere media ([4]; 0.0025 uM): 47(±4); viability at 0.0025 µM [4]: 59%; IC50 ([5]; Homo sapiens, MDA-MB-231, 48 h): 2.7 µM
5 | 0.346 µM | 2.8 µM | 0.4 µM | 0.532 µM | c1ccc2c(-c3ccc4c(c3)OCO4)ccc(OCCCCNC3CCCCC3)c2c1 [Formula XIV, N-(4-(1-(benzo[d][1,3]dioxol-5-yl)naphthalen-4-yloxy)butyl)cyclohexan amine] | 44(±5) | 39(±5) | 24(±3) | 13(±3) | 51% | 45% | 28% | 15% | 43(±3) | 21(±7) | 21(±3) | 7(±3) | 52% | 26% | 26% | 9% | 3D sphere count of PC3 in Prostosphere media ([3]; 0.0025 uM): 56(±3); viability at 0.0025 µM [3]: 64%; 3D sphere count of MDAMB231 in Mammosphere media ([4]; 0.0025 uM): 47(±3); viability at 0.0025 µM [4]: 57%; IC50 ([5]; Homo sapiens, MDA-MB-231, 48 h): 0.308 µM
